In brackets after ≈: the same amount, converted by molar mass.
Key:
Format in all cases: physicochemical
[1] = Visual solubility of Form 1 in common solvents; settings: thermodynamic from solid
Procedure: Solubility of Form 1 was tested visually. About 5 mg of Form I was accurately weighed into a glass vial of 5 ml. Small amounts of solvent was added gradually into the vial until the compound was dissolved or when the total amount added reached 5 ml. The cumulative volume of the solvent was recorded.

[2] = Solid state stability under stress conditions (XRPD, HPLC); settings: for XRPD pattern after stress storage: closed vial about 60° C., closed vial about 40° C./75% RH, 1 week and 2 weeks
Procedure: Form 1. Form 2, Form 6, Form 8, and Form 11 were each placed under following stress conditions: (1) in a closed vial at a temperature of about 60° C., and (2) in a closed vial at a temperature of about 40′° C. and a humidity of about 75% RH. The solids were analyzed with XRPD at 1 week and 2 weeks intervals.
Additionally, all forms were analyzed with HPLC for impurity at the 1 week and 2 weeks intervals. In a typical analysis, about 5 mg of forms were each dissolved in 10 ml of diluents with the aid of sonication for 2 minutes. THF was used as the diluent for Form 1, and methanol was used as the diluent for Form 6, Form 8, and Form 11. The HPLC analysis utilized Agilent Eclipse XDB-C18 4.6*150 mm. 3.5 μm at 30° C., a mobile phase of a gradient between 0.1% H3PO4 and acetonitrile (9:1 to 2:8 to 9:1), an injection volume of 10 μl, a flow rate of 1.0 ml/min, and a detection wavelength of 214 nm.
Form 2 was further subject to the stability test in an open vial at 40° C. and a relative humidity of 75% RH.

[3] = Heating study of Form 1; settings: 110° C. about 10 minutes / 100° C. 20 minutes
Procedure: About 150 mg of Form 1 was heated to 110° C. and maintained for about 10 minutes. The sample color changed from light yellow to dark yellow. The darker sample was evaluated with XRPD. The sample color changed back to light yellow at the conclusion of the XRPD evaluation, which was similar to the color before the heating treatment. […] Another sample of Form 1 was heated in an oven at 100° C. for 20 minutes and subsequently analyzed for the moisture content using KF method. The moisture content of heated Form 1 was 6.8%. […] The product is unstable and will rapidly absorb water.

[4] = Long-term stability of Compound I Form 2 (XRPD)
Procedure: The stability of Compound I Form 2 was analyzed by the following two experiments.
Experiment A: The following is an X-ray Powder Diffraction Analytical method used to obtain the data shown in FIG. 43 and FIG. 44, and which complies with ChP<0451>/USP/NF<941>/EP10.6 2.9.33. Standard XRPD patterns were collected using a Bruker D8 Advance diffractometer or equivalent instrument.
Parameters for collecting the XRPD shown in FIG. 43 and FIG. 44 is as follows:
The XRPD patterns shown in FIG. 45 and FIG. 46 were collected using a Bruker D2 Phaser X-ray diffractometer. Detector: PSD LynxEye; Sample holder: Zero background sample holder or equivalent; Software: DIFFRAC. Measurement Center, Version V6.5.0 or equivalent; Diffractometer Settings: Diffractometer type: 02 phaser; Goniometer Type: Theta/Theta; Sample Stage: Standard rotating stage; Goniometer Diameter: 282.2 mm; Divergence slit: 1.0 mm; Primary seller slit: 2.5°; Secondary seller slit: 2.5°; Airscatter screen module: 1.0 mm; Tube Element: Cu; Tube parameters: voltage 30 kV; current 10 mA; Scan Parameters: SSD160: Locked coupled; SSD160-2: coupled Two Theta/Theta Scan Type: SSD160: Locked coupled; SSD160-2: coupled Two Theta/Theta; Continuous PSD fast Scan Mode: Continuous PSD fast scan; Rotation Speed: 20 rpm; Start: 3° ˜40° (2 0); Scan Step: 0.02° (2 0); Scan Speed: 0.2s/step; Detector opening: 4.5°; Sample Analysis; Test the sample with the Diffractometer Settings and Scan Parameters. The powder X-ray diffraction pattern of the sample was recorded and calculations were performed according to Bruker D2 Phaser X-ray Diffractometer User Manual V6-Identification of Crystal Form by X-Ray Powder Diffraction (XRPD)-Bruker D2 Phaser.

## CCc1nc2ccccn2c1C(=O)c1cc(Br)c(O)c(C#N)c1 [Form 1, 3-bromo-5-[(2-ethylimidazo[1,2-a]pyridin-3-yl)carbonyl]-2-hydroxybenzonitrile]
[1]; acetone, organic solvent or mixture
  Solubility: < 1000 µg/mL
[1]; acetone:water 3:1, organic solvent or mixture, Acetone:water = 3:1
  Solubility: < 1000 µg/mL
[1]; acetonitrile (ACN), organic solvent or mixture
  Solubility: < 1000 µg/mL
[1]; dichloromethane (DCM), organic solvent or mixture
  Solubility: < 1000 µg/mL
[1]; dimethylformamide (DMF), organic solvent or mixture
  Solubility: > 25000 µg/mL
[1]; dimethylsulfoxide (DMSO), organic solvent or mixture
  Solubility: > 25000 µg/mL
[1]; ethanol, organic solvent or mixture, Ethanol (EtOH)
  Solubility: < 1000 µg/mL
[1]; ethyl acetate, organic solvent or mixture, Ethyl acetate (EtAc)
  Solubility: < 1000 µg/mL
[1]; heptane, organic solvent or mixture
  Solubility: < 1000 µg/mL
[1]; isopropyl alcohol, organic solvent or mixture
  Solubility: < 1000 µg/mL
[1]; methanol, organic solvent or mixture, Methanol (MeOH)
  Solubility: < 1000 µg/mL
[1]; methanol:water 3:1, organic solvent or mixture, Methanol:water = 3:1
  Solubility: < 1000 µg/mL
[1]; methyl ethyl ketone (MEK), organic solvent or mixture
  Solubility: < 1000 µg/mL
[1]; tetrahydrofuran (THF), organic solvent or mixture
  Solubility: ~3000 µg/mL (≈ 8100 µM)
[1]; toluene, organic solvent or mixture
  Solubility: < 1000 µg/mL
[1]; water, Water (H2O)
  Solubility: < 1000 µg/mL
[2]
  XRPD pattern after stress storage: substantially similar to those received at the initial time
[3]
  Behaviour upon heating: may lose water upon heating

## CCc1nc2ccccn2c1C(=O)c1cc(Br)c(O)c(C#N)c1 [Form 2, 3-bromo-5-[(2-ethylimidazo[1,2-a]pyridin-3-yl)carbonyl]-2-hydroxybenzonitrile]
[2]
  XRPD pattern after stress storage: substantially similar to those received at the initial time
[2]; open vial, 40° C., 75% RH
  XRPD after storage in an open vial: significant changes at the end of ninth day
[4]; Experiment A, 25° C.±2° C./60% RH±5% RH
  Period over which the form remains stable (XRPD): at least 12 months
[4]; Experiment A, 40° C.±2° C./75% RH±5% RH
  Period over which the form remains stable (XRPD): at least 6 months
[4]; Experiment B, 25° C.±2° C./60% RH±5% RH
  Period over which the form remains stable (XRPD): at least 48 months
[4]; Experiment B, 40° C.±2° C./75% RH±5% RH
  Period over which the form remains stable (XRPD): at least 6 months

Reference: patent US20250368639A1, “SOLID FORMS OF A COMPOUND FOR TREATING OR PREVENTING HYPERURICEMIA OR GOUT” (ATOM THERAPEUTICS CO., LTD, priority 2022, published 2025)
